{"source": "patent US20240383852A1", "about": "“ANTI-VIRAL COMPOUNDS” (INFEX Therapeutics Limited, priority 2021, published 2024)", "key": {"[1]": {"system": "human Hep G2 cells (ATCC HB-8065)", "assay": "Cytotoxicity in Hep G2 cells (CellTiter-Glo)", "format": "cell-based", "settings": "Hep G2 cells, 100 μM test article, 24-hour exposure"}, "[2]": {"target": "T1, SARS-CoV-2 PLpro (Severe acute respiratory syndrome coronavirus 2, UniProt P0DTD1)", "T1 construct": "containing 60 nM papain-like protease", "assay": "biochemical", "settings": "60 nM papain-like protease, 50 μM Z-RLRGG-AMC, pH 7.5, 37° C.; read-out: SARS-CoV-2 PLpro IC50"}}}
{"smiles": "COc1ccc([C@@H](C)NC(=O)c2cc(N3CCN(C)CC3)ccc2C)cc1-c1cn[nH]c1", "note": "[Example 214, N-[(1R)-1-[4-Methoxy-3-(1H-pyrazol-4-yl)phenyl]ethyl]-2-methyl-5-(4-methylpiperazin-1-yl)benzamide]", "values": [{"measurement": "% Cell Viability", "setting": "[1]", "result": 101.2, "unit": "%"}, {"measurement": "IC50", "setting": "[2]", "result": "< 2000", "unit": "nM"}]}
{"smiles": "COc1cc(OC)c([C@@H](C)NC(=O)c2cc(N3CCN(C)CC3)ccc2C)cc1-c1ccccc1", "note": "[Example 216, N-[(1R)-1-(2,4-Dimethoxy-5-phenyl-phenyl)ethyl]-2-methyl-5-(4-methylpiperazin-1-yl)benzamide]", "values": [{"measurement": "% Cell Viability", "setting": "[1]", "result": 0.6, "unit": "%"}, {"measurement": "IC50", "setting": "[2]", "result": "< 2000", "unit": "nM"}]}
{"smiles": "Cc1ccc(N2CCN(C)CC2)cc1C(=O)N[C@H](C)c1ccc(F)c(-c2ccccc2)c1", "note": "[Example 218, N-[(1R)-1-(4-Fluoro-3-phenyl-phenyl)ethyl]-2-methyl-5-(4-methylpiperazin-1-yl)benzamide]", "values": [{"measurement": "% Cell Viability", "setting": "[1]", "result": 1.5, "unit": "%"}, {"measurement": "IC50", "setting": "[2]", "result": "< 2000", "unit": "nM"}]}
{"smiles": "Cc1ccc(N2CCN(C)CC2)cc1C(=O)N[C@H](C)c1ccc(OC(F)(F)F)c(-c2cnn(C)c2)c1", "note": "[Example 222, 2-Methyl-5-(4-methylpiperazin-1-yl)-N-[(1R)-1-[3-(1-methylpyrazol-4-yl)-4-(trifluoromethoxy)phenyl]ethyl]benzamide]", "values": [{"measurement": "% Cell Viability", "setting": "[1]", "result": 7.4, "unit": "%"}, {"measurement": "IC50", "setting": "[2]", "result": "< 2000", "unit": "nM"}]}
{"smiles": "Cc1ccc(N2CCN(C)CC2)cc1C(=O)N[C@H](C)c1cncc(-c2ccccc2)c1", "note": "[Example 223, 2-Methyl-5-(4-methylpiperazin-1-yl)-N-[(1R)-1-(5-phenyl-3-pyridyl)ethyl]benzamide]", "values": [{"measurement": "% Cell Viability", "setting": "[1]", "result": 59.8, "unit": "%"}, {"measurement": "IC50", "setting": "[2]", "result": "< 2000", "unit": "nM"}]}
{"smiles": "Cc1ccc(N2CCN(C)CC2)cc1C(=O)N[C@H](C)c1cncc(-c2cnn(C)c2)c1", "note": "[Example 224, 2-Methyl-5-(4-methylpiperazin-1-yl)-N-[(1R)-1-[5-(1-methylpyrazol-4-yl)-3-pyridyl]ethyl]benzamide]", "values": [{"measurement": "% Cell Viability", "setting": "[1]", "result": 105.0, "unit": "%"}, {"measurement": "IC50", "setting": "[2]", "result": "< 5000", "unit": "nM"}]}
{"smiles": "Cc1ccc(N2CCN(C)CC2)cc1C(=O)N[C@H](C)c1cncc(-c2cn(C)nc2C)c1", "note": "[Example 225, N-[(1R)-1-[5-(1,3-Dimethylpyrazol-4-yl)-3-pyridyl]ethyl]-2-methyl-5-(4-methylpiperazin-1-yl)benzamide]", "values": [{"measurement": "% Cell Viability", "setting": "[1]", "result": 95.8, "unit": "%"}, {"measurement": "IC50", "setting": "[2]", "result": "< 10000", "unit": "nM"}]}
{"smiles": "COc1c(-c2cnn(C)c2)cccc1[C@@H](C)NC(=O)c1cc(N2CCN(C)CC2)ccc1C", "note": "[Example 226, N-[(1R)-1-[2-Methoxy-3-(1-methylpyrazol-4-yl)phenyl]ethyl]-2-methyl-5-(4-methylpiperazin-1-yl)benzamide]", "values": [{"measurement": "% Cell Viability", "setting": "[1]", "result": 91.4, "unit": "%"}, {"measurement": "IC50", "setting": "[2]", "result": "< 10000", "unit": "nM"}]}
{"smiles": "Cc1ccc(N2CCN(C)CC2)cc1C(=O)N[C@H](C)c1ccc(C)c(-c2cnn(C)c2)c1", "note": "[Example 228, 2-Methyl-N-[(1R)-1-[4-methyl-3-(1-methylpyrazol-4-yl)phenyl]ethyl]-5-(4-methylpiperazin-1-yl)benzamide]", "values": [{"measurement": "% Cell Viability", "setting": "[1]", "result": 69.9, "unit": "%"}, {"measurement": "IC50", "setting": "[2]", "result": "< 2000", "unit": "nM"}]}
{"smiles": "Cc1ccc(N2CCN(C)CC2)cc1C(=O)N[C@H](C)c1cc(F)cc(-c2cnn(C)c2)c1", "note": "[Example 229, N-[(1R)-1-[3-Fluoro-5-(1-methylpyrazol-4-yl)phenyl]ethyl]-2-methyl-5-(4-methylpiperazin-1-yl)benzamide]", "values": [{"measurement": "% Cell Viability", "setting": "[1]", "result": 66.7, "unit": "%"}, {"measurement": "IC50", "setting": "[2]", "result": "< 2000", "unit": "nM"}]}
{"smiles": "Cc1ccc(N2CCN(C)CC2)cc1C(=O)N[C@H](C)c1cc(-c2ccccc2)cs1", "note": "[Example 231, 2-Methyl-5-(4-methylpiperazin-1-yl)-N-[(1R)-1-(4-phenyl-2-thienyl)ethyl]benzamide]", "values": [{"measurement": "% Cell Viability", "setting": "[1]", "result": 1.6, "unit": "%"}, {"measurement": "IC50", "setting": "[2]", "result": "< 2000", "unit": "nM"}]}
{"smiles": "Cc1ccc(N2CCN(C)CC2)cc1C(=O)N[C@H](C)c1cc(-c2cnn(C)c2)cs1", "note": "[Example 232, 2-Methyl-5-(4-methylpiperazin-1-yl)-N-[(1R)-1-[4-(1-methylpyrazol-4-yl)-2-thienyl]ethyl]benzamide]", "values": [{"measurement": "% Cell Viability", "setting": "[1]", "result": 75.2, "unit": "%"}, {"measurement": "IC50", "setting": "[2]", "result": "< 5000", "unit": "nM"}]}
{"smiles": "COc1cc(-c2ccccc2)cc([C@@H](C)NC(=O)c2cc(N3CCN(C)CC3)ccc2C)c1", "note": "[Example 234, N-[(1R)-1-(3-Methoxy-5-phenyl-phenyl)ethyl]-2-methyl-5-(4-methylpiperazin-1-yl)benzamide]", "values": [{"measurement": "% Cell Viability", "setting": "[1]", "result": 0.9, "unit": "%"}, {"measurement": "IC50", "setting": "[2]", "result": "< 2000", "unit": "nM"}]}
{"smiles": "COc1ccc([C@@H](C)NC(=O)c2cc(N3CCN(C)CC3)ccc2C)cc1-c1nnc(C)s1", "note": "[Example 236, N-[(1R)-1-[4-Methoxy-3-(5-methyl-1,3,4-thiadiazol-2-yl)phenyl]ethyl]-2-methyl-5-(4-methylpiperazin-1-yl)benzamide]", "values": [{"measurement": "% Cell Viability", "setting": "[1]", "result": 79.5, "unit": "%"}, {"measurement": "IC50", "setting": "[2]", "result": "< 2000", "unit": "nM"}]}
{"smiles": "COc1ccc([C@@H](C)NC(=O)c2cc(N3CCN(C)CC3)ccc2C)cc1C1CCNCC1", "note": "[Example 237, N-[(1R)-1-[4-Methoxy-3-(4-piperidyl)phenyl]ethyl]-2-methyl-5-(4-methylpiperazin-1-yl)benzamide]", "values": [{"measurement": "% Cell Viability", "setting": "[1]", "result": 87.9, "unit": "%"}, {"measurement": "IC50", "setting": "[2]", "result": "< 5000", "unit": "nM"}]}
{"smiles": "COc1ccc([C@@H](C)NC(=O)c2cc(N3CCN(C)CC3)ccc2C)cc1C1CCN(CCC(=O)O)CC1", "note": "[Example 238, 3-[4-[2-Methoxy-5-[(1R)-1-[[2-methyl-5-(4-methylpiperazin-1-yl)benzoyl]amino]ethyl]phenyl]-1-piperidyl]propanoic Acid]", "values": [{"measurement": "% Cell Viability", "setting": "[1]", "result": 119.7, "unit": "%"}, {"measurement": "IC50", "setting": "[2]", "result": "< 10000", "unit": "nM"}]}
{"smiles": "COc1ccc([C@@H](C)NC(=O)c2cc(N3CC4CN(C)CC4C3)ccc2C)cc1-c1cnn(C)c1", "note": "(stereo partly drawn) [Example 240, N-[(1R)-1-[4-Methoxy-3-(1-methylpyrazol-4-yl)phenyl]ethyl]-2-methyl-5-(2-methyl-1,3,3a,4,6,6a-hexahydropyrrolo[3,4-c]pyrrol-5-yl)benzamide]", "values": [{"measurement": "% Cell Viability", "setting": "[1]", "result": 64.3, "unit": "%"}, {"measurement": "IC50", "setting": "[2]", "result": "< 2000", "unit": "nM"}]}
{"smiles": "COc1ccc([C@@H](C)NC(=O)c2cc(N3CCNC4(CC4)C3)ccc2C)cc1-c1cnn(C)c1", "note": "[Example 241, 5-(4,7-Diazaspiro[2.5]octan-7-yl)-N-[(1R)-1-[4-methoxy-3-(1-methylpyrazol-4-yl)phenyl]ethyl]-2-methyl-benzamide]", "values": [{"measurement": "% Cell Viability", "setting": "[1]", "result": 84.2, "unit": "%"}, {"measurement": "IC50", "setting": "[2]", "result": "< 5000", "unit": "nM"}]}
{"smiles": "COc1cc(-c2cnn(C)c2)cc([C@@H](C)NC(=O)c2cc(N3CC4CN(C)CC4C3)ccc2C)c1", "note": "(stereo partly drawn) [Example 242, N-[(1R)-1-[3-Methoxy-5-(1-methylpyrazol-4-yl)phenyl]ethyl]-2-methyl-5-(2-methyl-1,3,3a,4,6,6a-hexahydropyrrolo[3,4-c]pyrrol-5-yl)benzamide]", "values": [{"measurement": "% Cell Viability", "setting": "[1]", "result": 62.4, "unit": "%"}, {"measurement": "IC50", "setting": "[2]", "result": "< 2000", "unit": "nM"}]}
{"smiles": "COc1cc(-c2cnn(C)c2)cc([C@@H](C)NC(=O)c2cc(N3CCN4CCCC4C3)ccc2C)c1", "note": "(stereo partly drawn) [Example 243, 5-(3,4,6,7,8,8a-Hexahydro-1H-pyrrolo[1,2-a]pyrazin-2-yl)-N-[(1R)-1-[3-methoxy-5-(1-methylpyrazol-4-yl)phenyl]ethyl]-2-methyl-benzamide]", "values": [{"measurement": "% Cell Viability", "setting": "[1]", "result": 70.9, "unit": "%"}, {"measurement": "IC50", "setting": "[2]", "result": "< 2000", "unit": "nM"}]}
{"smiles": "COc1ccc([C@@H](C)NC(=O)c2cc(N3CCN(C)CC3)ccc2C)cc1-c1cnn(C)c1C", "note": "[Example 246, N-[(1R)-1-[3-(1,5-Dimethylpyrazol-4-yl)-4-methoxy-phenyl]ethyl]-2-methyl-5-(4-methylpiperazin-1-yl)benzamide]", "values": [{"measurement": "% Cell Viability", "setting": "[1]", "result": 81.4, "unit": "%"}, {"measurement": "IC50", "setting": "[2]", "result": "< 2000", "unit": "nM"}]}
{"smiles": "COc1cc(-c2cnn(C)c2)cc([C@@H](C)NC(=O)c2cc(N3CCCN(C)CC3)ccc2C)c1", "note": "[Example 247, N-[(1R)-1-[3-Methoxy-5-(1-methylpyrazol-4-yl)phenyl]ethyl]-2-methyl-5-(4-methyl-1,4-diazepan-1-yl)benzamide]", "values": [{"measurement": "% Cell Viability", "setting": "[1]", "result": 56.7, "unit": "%"}, {"measurement": "IC50", "setting": "[2]", "result": "< 2000", "unit": "nM"}]}
